The IC50 is the concentration that gives 50% inhibition. Low readings indicate greater potency, high ones weaker potency.

Experiment in all cases: Radiometric kinase assay (Reaction Biology HotSpot)
What all share (type): biochemical

Assay [1] has as its target T1, MKK7 (Homo sapiens, UniProt O14733).
T1 construct: purchased Reaction Biology Corporation
T1 sequence (O14733 1-419): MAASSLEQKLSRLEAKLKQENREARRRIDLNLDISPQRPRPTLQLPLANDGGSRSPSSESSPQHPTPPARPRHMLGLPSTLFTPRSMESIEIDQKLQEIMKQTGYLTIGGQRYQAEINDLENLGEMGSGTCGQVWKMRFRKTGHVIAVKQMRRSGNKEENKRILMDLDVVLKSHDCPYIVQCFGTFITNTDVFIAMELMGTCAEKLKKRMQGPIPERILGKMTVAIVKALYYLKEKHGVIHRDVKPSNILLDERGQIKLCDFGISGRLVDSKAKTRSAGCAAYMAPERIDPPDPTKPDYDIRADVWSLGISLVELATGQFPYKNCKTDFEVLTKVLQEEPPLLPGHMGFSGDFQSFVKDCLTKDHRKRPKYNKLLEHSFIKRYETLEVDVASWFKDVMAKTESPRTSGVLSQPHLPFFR
Particulars: 200 nM compound, duplicate mean, [ATP] = 10 μM; read-out: Residual Activity @ 200 nM, MKK7. As for the experimental part:
(§1) If not mentioned differently, in vitro profiling of compounds was performed at Reaction Biology Corporation using the HotSpot™ assay platform.

Assay [2] concerns the target T2, JAK3 (Homo sapiens, UniProt P52333).
T2 construct: purchased Reaction Biology Corporation
T2 sequence (P52333 1-1124): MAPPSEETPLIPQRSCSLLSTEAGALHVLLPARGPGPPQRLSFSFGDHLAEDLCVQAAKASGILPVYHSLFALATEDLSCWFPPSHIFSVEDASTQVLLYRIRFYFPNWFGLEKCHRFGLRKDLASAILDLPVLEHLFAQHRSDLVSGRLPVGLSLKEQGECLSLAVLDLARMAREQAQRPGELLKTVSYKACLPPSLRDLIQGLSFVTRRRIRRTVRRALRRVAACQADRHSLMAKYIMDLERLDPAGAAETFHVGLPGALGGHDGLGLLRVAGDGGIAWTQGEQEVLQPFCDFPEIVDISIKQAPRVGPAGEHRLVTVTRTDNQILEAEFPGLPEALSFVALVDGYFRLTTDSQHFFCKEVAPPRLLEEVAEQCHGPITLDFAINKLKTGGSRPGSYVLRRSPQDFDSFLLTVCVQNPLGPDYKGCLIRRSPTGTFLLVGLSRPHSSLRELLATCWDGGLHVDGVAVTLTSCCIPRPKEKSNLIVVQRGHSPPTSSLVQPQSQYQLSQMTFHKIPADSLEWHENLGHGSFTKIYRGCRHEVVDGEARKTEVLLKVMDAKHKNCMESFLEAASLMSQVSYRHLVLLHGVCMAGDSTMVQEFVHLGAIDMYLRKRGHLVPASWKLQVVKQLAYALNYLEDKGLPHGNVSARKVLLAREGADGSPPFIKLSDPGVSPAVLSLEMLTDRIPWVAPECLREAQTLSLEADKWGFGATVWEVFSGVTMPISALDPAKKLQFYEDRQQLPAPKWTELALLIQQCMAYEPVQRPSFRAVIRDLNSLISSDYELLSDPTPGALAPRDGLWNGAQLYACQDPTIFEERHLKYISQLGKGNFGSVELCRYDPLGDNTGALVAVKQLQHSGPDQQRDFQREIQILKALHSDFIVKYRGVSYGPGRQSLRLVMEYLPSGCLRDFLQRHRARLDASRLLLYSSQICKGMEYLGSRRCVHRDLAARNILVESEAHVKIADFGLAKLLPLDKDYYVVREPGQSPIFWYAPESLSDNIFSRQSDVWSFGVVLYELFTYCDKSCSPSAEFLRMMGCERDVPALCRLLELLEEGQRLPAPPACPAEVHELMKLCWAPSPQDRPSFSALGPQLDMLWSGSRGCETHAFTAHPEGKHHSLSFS
Conditions: [ATP] = 10 μM; for remaining activity at 0.2 µM: 200 nM compound, duplicate mean, read-out: Residual Activity @ 200 nM, JAK3; for IC50: radiometric HotSpot, five-dose singlicate. As for the experimental part: as §1

For assay [3], the target named is T3, TXK (Homo sapiens, UniProt P42681).
T3 construct: purchased Reaction Biology Corporation
T3 sequence (P42681 1-527): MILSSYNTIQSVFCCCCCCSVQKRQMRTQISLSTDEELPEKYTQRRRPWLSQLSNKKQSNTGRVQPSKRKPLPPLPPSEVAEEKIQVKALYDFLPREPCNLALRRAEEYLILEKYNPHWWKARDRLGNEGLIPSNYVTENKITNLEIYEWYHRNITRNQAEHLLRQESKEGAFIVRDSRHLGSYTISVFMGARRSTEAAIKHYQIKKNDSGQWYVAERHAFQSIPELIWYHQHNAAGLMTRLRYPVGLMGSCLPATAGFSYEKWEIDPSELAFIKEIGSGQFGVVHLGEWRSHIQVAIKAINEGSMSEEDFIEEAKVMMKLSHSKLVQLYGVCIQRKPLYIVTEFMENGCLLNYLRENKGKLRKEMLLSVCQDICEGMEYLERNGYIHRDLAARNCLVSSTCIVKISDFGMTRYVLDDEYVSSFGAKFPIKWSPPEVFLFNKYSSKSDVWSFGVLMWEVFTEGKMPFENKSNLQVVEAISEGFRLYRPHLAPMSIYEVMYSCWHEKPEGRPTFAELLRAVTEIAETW
Particulars: for remaining activity at 0.2 µM: read-out: Residual Activity @ 200 nM, TXK; for IC50: five-dose singlicate. As for the experimental part: as §1

Assay [4] has as its target T4, BMX (Homo sapiens, UniProt P51813).
T4 construct: purchased Reaction Biology Corporation
T4 sequence (P51813 1-675): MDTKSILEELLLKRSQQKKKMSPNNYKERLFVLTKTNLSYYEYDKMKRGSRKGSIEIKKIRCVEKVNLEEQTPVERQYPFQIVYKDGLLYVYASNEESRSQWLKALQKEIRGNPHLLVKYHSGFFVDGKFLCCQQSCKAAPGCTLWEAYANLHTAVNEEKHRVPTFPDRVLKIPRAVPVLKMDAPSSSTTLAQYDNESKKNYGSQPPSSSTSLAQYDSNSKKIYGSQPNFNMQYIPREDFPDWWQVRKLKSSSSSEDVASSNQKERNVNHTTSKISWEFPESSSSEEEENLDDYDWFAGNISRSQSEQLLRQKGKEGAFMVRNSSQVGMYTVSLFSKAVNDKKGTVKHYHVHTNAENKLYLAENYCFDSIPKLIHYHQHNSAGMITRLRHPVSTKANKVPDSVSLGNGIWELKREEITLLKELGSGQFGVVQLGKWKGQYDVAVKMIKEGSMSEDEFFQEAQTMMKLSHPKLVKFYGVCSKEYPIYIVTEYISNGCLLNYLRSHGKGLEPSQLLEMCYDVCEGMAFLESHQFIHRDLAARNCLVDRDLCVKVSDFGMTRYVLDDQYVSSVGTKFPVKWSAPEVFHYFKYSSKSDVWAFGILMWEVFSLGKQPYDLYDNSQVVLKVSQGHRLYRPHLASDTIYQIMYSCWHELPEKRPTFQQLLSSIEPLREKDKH
Conditions: [ATP] = 10 μM; for remaining activity at 0.2 µM: 200 nM compound, duplicate mean, read-out: Residual Activity @ 200 nM, BMX; for IC50: radiometric HotSpot, five-dose singlicate. As for the experimental part: as §1

Where [5] appears, read: 200 nM compound, duplicate mean, [ATP] = 10 μM.
Where [6] appears, read: radiometric HotSpot, [ATP] = 10 μM.

Take `C=CC(=O)Nc1cccc(-c2c[nH]c3ncccc23)c1` [Compound 9a, N-(3-(1H-pyrrolo[2,3-b]pyridin-3-yl)phenyl)acrylamide]: the remaining activity at 0.2 µM in assay [1] is 37.3%; in assay [2], 0.8%; in assay [3] (setting [5]) it was 1.8%; in assay [4], 2.7%. The molecule also yielded an IC50 in assay [2] of 0.2 nM.
For the molecule `C=CC(=O)Nc1cccc(-c2c[nH]c3ncc(C(N)=O)cc23)c1` [Compound 10a, 3-(3-acrylamidophenyl)-1H-pyrrolo[2,3-b]pyridine-5-carboxamide], the remaining activity at 0.2 µM in assay [1] was 28.3%; in assay [2], 0.5%; in assay [3] (setting [5]), 3.2%; in assay [4] it was 1.6%. Also, the IC50 is < 0.1 nM in assay [2], 28 nM in assay [3] (setting [6]) and 29 nM in assay [4].
Regarding `C=CC(=O)Nc1cccc(-c2c[nH]c3ncc(C(=O)NC4CCCC4)cc23)c1` [Compound 11a, 3-(3-acrylamidophenyl)-N-cyclopentyl-1H-pyrrolo[2,3-b]pyridine-5-carboxamide], the remaining activity at 1 µM in assay [3] (1 µM compound, radiometric HotSpot, read-out: residual activity at 1 µM, TXK) is 72%. In addition, the half-inhibitory concentration (IC50) is > 1000 nM in assay [3] (setting [6]) and 539 nM in assay [4].
As for `CCC(=O)Nc1cccc(-c2c[nH]c3ncc(NC(=O)C4CCCC4)cc23)c1` [Compound 12b, N-(3-(3-propionamidophenyl)-1H-pyrrolo[2,3-b]pyridin-5-yl)cyclopentanecarboxamide], in assay [3] (setting [5]), the “Residual Activity @ 200 nM, TXK” value is on record as 88.8% and the remaining activity at 0.2 µM is 89%. In assay [4], this molecule returned a concentration for half-maximal inhibition (IC50) of 582 nM.
As to `C=CC(=O)Nc1cccc(-c2c[nH]c3ncc(NC(=O)c4cccs4)cc23)c1` [Compound 12c, N-(3-(3-acrylamidophenyl)-1H-pyrrolo[2,3-b]pyridin-5-yl)thiophene-2-carboxamide], the remaining activity at 0.2 µM in assay [1] is > 100%; in assay [2] it was > 100%; in assay [3] (setting [5]), 0.3%. Further, the IC50 is > 10000 nM in assay [2] and 10 nM in assay [3] (setting [6]).

The record behind these values is paper PMC7730235, “Discovery of a Novel Class of Covalent Dual Inhibitors Targeting the Protein Kinases BMX and BTK” (International Journal of Molecular Sciences, 2020).
